Measurements published in US7727998B2, “Melanin-concentrating hormone receptor antagonists containing piperidine derivatives as the active ingredient” (Banyu Pharmaceutical Co., Ltd., priority 2003, dated 2010).

These molecules were tested against T1, human MCH-1R (Homo sapiens, UniProt Q99705) (assay: MCH binding inhibition test). Settings: not given.
T1 construct: expressed in transfected cells; host or cells: CHO-K1 (American Type Culture Collection), membrane samples
Text: Pharmacological Test Example 1
(MCH Binding Inhibition Test)
A human MCH-1R encoding cDNA sequence [FEBS Letters, Vol. 398, p. 253 (1996); Biochimica et Biophisica Acta, Vol. 1401, p. 216 (1998)] was cloned to plasmid vector pEF/mic/cyto (Invitrogen Corporation). The obtained expression vector was transfected to a host cell CHO-K1 (American Type Culture Collection) using lipofectamine plus reagent (Life Technology Inc.) to provide MCH-1R expression cells.
Membrane samples prepared from the MCH-1R expression cells were incubated with each test compound and 50 pM of [^125I]MCH (NEN Co.), in an assay buffer (50 mM Tris buffer comprising 10 mM magnesium chloride, 2 mM ethylenediamine tetraacetate, 0.01% bacitracin and 0.2% bovine serum albumin; pH 7.4) at 25° C. for an hour, followed by filtration through Glass Filter GF/C (Wattman Co.). After washing the glass filter with 50 mM Tris buffer (pH7.4) comprising 10 mM magnesium chloride, 2 mM ethylenediamine tetraacetate and 0.04% Tween-20, radiative activity on the glass filter was measured. Non-specific binding was measured in the presence of 1 μM human MCH and 50% inhibition concentration (IC50 value) of each test compound to specific [^125] MCH binding was determined.

T1 sequence (Q99705 whole entry): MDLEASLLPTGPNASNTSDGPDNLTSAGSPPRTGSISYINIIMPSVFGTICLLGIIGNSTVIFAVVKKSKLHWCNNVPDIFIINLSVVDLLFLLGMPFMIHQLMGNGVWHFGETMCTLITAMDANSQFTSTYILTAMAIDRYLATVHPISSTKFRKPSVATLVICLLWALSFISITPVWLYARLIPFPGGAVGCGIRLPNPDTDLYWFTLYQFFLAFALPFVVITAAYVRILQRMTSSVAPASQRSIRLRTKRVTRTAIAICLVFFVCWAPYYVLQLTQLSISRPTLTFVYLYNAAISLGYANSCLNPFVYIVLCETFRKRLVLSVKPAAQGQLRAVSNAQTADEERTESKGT

Row | SMILES | IC50 [nM]
1 | O=C(NCCCN1CCC2(CC1)OCc1cc(F)ccc12)C(c1ccc(F)c(F)c1)N1CCCC1=O (stereo not drawn) [Example 6, 2-(3,4-Difluorophenyl)-2-(2-oxo-1-pyrrolidinyl)-N-[3-(spiro[5-fluoroisobenzofuran-1(3H), 4′-piperidin]-1-yl)propyl]-acetamide] | 5
2 | CN(CCCN1CCC2(CC1)OCc1ccccc12)C(=O)C(c1ccc(F)c(F)c1)n1ncnn1 (stereo not drawn) [Example 28, 2-(3,4-Difluorophenyl)-N-methyl-2-(2H-1,2,3,4-tetrazol-2-yl)-N-[3-(spiro[isobenzofuran-1(3H), 4′-piperidin]-1-yl)propyl]acetamide] | 1.9
3 | CN(CCCN1CCC2(CC1)OCc1cc(F)ccc12)C(=O)C(c1ccc(F)c(F)c1)N1CCCC1=O (stereo not drawn) [Example 33, 2-(3,4-Difluorophenyl)-N-methyl-2-(2-oxo-1-pyrrolidinyl-N-[3-spiro[5-fluoroisobenzofuran-1(3H), 4′-piperidin]-1-yl)-propyl]acetamide] | 1.4
4 | Cc1nccn1C(C(=O)N(C)CCCN1CCC2(CC1)OCc1ccc(F)cc12)c1ccc(F)c(F)c1 (stereo not drawn) [Example 43, 2-(3,4-Difluorophenyl)-N-methyl-2-(2-methyl-1H-imidazol-1-yl)-N-[3-(spiro[6-fluoroisobenzofuran-1(3H), 4′-piperidin]-1-yl)-propyl]acetamide] | 0.2
5 | CN(CCCN1CCC2(CC1)OCc1cc(F)ncc12)C(=O)C(c1ccc(F)nc1)c1ccc(F)nc1 [Example 48, 2,2-Bis(6-fluoro-3-pyridinyl)-N-methyl-N-[3-(spiro[5-fluoro-6-azaisobenzofuran-1(3H), 4′-piperidin]-1-yl)propyl]-acetamide] | 6.5

Same assay, conditions: inhibition of specific [125I]MCH (50 pM) binding; membranes of MCH-1R expressing CHO-K1 cells; 25° C., one hour, pH 7.4; read-out: IC50

Row | SMILES | IC50 [nM]
6 | CN(CCCN1CCC2(CC1)OCc1ccccc12)C(=O)C(c1ccc(Cl)cc1)n1cccc1 (stereo not drawn) [Example 12, 2-(4-Chlorophenyl)-N-methyl-2-(1H-pyrrol-1-yl)-N-[3-(spiro-[isobenzofuran-1(3H), 4′-piperidin]-1-yl)propyl]acetamide] | 1
7 | CN(CCCN1CCC2(CC1)OCc1ccccc12)C(=O)C(c1ccc(F)c(F)c1)n1ccnn1 (stereo not drawn) [Example 18, 2-(3,4-Difluorophenyl)-N-methyl-2-(1H-1,2,3-triazol-1-yl)-N-[3-(spiro[isobenzofuran-1(3H), 4′-piperidin]-1-yl)propyl]acetamide] | 1.9
8 | CCC(=O)Nc1cccc(C2CCN(CCCN(C)C(=O)C(C)(C)c3ccc(F)c(F)c3)CC2)c1 [Example 60, 2-(3,4-Difluorophenyl)-2,2-dimethyl-N-methyl-N-[3-(4-(3-(propionylamino)phenyl)-1-piperidinyl)propyl]acetamide] | 2.5
9 | CCN(CCCN1CCC2(CC1)OCc1ccccc12)C(=O)C(c1ccc(F)c(F)c1)N1CCCC1=O (stereo not drawn) [Example 67, 2-(3,4-Difluorophenyl)-N-ethyl-2-(2-oxo-1-pyrrolidinyl)-N-[3-(spiro[isobenzofuran-1(3H), 4′-piperidin]-1-yl)propyl]acetamide] | 1
